Data as given in patent US9283242B2, “Uses of dihydro bases” (priority 2013, dated 2016).
“Also recorded” adds a separate entry of the source.

What was measured:
[1] = target: PfuTurbo DNA polymerase (Pyrococcus furiosus, UniProt P61875); assay: In vitro polymerase extension assay on KP1212-containing M13 template; assay type: biochemical
Experimental: (A) A 16mer oligonucleotide containing KP1212 (SEQ ID NO: 1) (or controls) at a specific site was chemically synthesized and ligated into the genome of an M13 bacteriophage. (B) The KP1212-containing M13 genomes were replicated within E. coli cells. Progeny were analyzed to characterize the amount and the type of nucleic acid base placed opposite the lesion during replication. The relative reduction in lesion vs. non-lesion competitor progeny formation was used as an estimate of the extent to which KP1212 and m3C inhibited DNA replication. (C) The KP1212-containing M13 genomes were used as templates for in vitro polymerase extension assays, carried out at 72° C., using the high-fidelity DNA polymerase PfuTurbo. (D) Bypass efficiency (CRAB assay) of KP1212, m3C, C in HK81 (AlkB^+) and HK82 (AlkB^−) E. coli cells. m3C and undamaged C were used as controls. Genomes were made and normalized to one another before being combined with a competitor genome. Each mixture was transformed into the corresponding cell strain in triplicate, and bypass efficiency was calculated by using the undamaged C genome as 100% bypass, with error bars representing one standard deviation. (E) Mutagenesis (REAP assay) of KP1212, m3C, and C in HK82 (AlkB^−) E. coli cells. m3C, undamaged C, and an approximately equimolar mixture of genomes carrying unmodified G/A/T/C bases at the site of inquiry (denoted as GATC) were used as controls. Genomes containing the lesions of interest were transfected into E. coli in triplicate.
The single-stranded, lesion-containing genomes, constructed above were also used as templates for in vitro polymerase extension assays. Fifty fmol of each genome were mixed with 50 pmol of REAP forward and reverse primers, 1.25 U Pfu Turbo DNA polymerase and 5 nmol of each dNTP in 1×Pfu Turbo buffer. […] Subsequently, 29 PCR cycles amplified the newly formed strand and generated a product that was then analyzed using the exact downstream steps of the REAP assay described above. […]

[2] = Variable temperature FTIR and 2D IR, tautomerism in aqueous solution; assay type: physicochemical; conditions: deuterated 0.5 M phosphate buffer pD 7.9, 10-80° C.
Experimental: For both 1D FTIR and 2D IR experiments, the H/D exchanged KP1212 was dissolved at a concentration of 20 mg/ml (88 mM) in 0.5 M phosphate buffer pD (pH reading in D2O) 7.9. About 25 μl of sample solution was sandwiched between two CaF2 windows separated by a 50 μm TEFLON spacer. Variable-temperature FTIR spectra were collected using Nicolet 380 FTIR spectrometer at 1.0 cm^−1 resolution with 16 scans per spectrum. Spectra for both the sample and the D2O were collected with the same procedure and the solvent spectra were subtracted from the sample spectra.
Absorptive 2D IR spectra were collected using a 2D IR spectrometer as described in detail previously (Chung, H. S., Khalil, M., Smith, A. W. & Tokmakoff, A. Transient two-dimensional IR spectrometer for probing nanosecond temperature-jump kinetics. Rev. Sci. Instrum. 78, 063101 (2007)). The relative polarizations of the pulses were set to be perpendicular (ZZYY). The waiting time (τ2) between the first two pulses and the third pulse was fixed at 150 fs. The coherence time between the first and the second pulse was scanned in 4 fs steps from −60 fs to 2.8 ps and 2.0 ps for rephasing and non-rephasing spectra, respectively. […]
2D IR spectroscopy is analogous to 2D NMR: sequences of ultrafast IR pulses are employed to excite molecular vibrations, and the energy flow from one vibration to others is then detected. […]

[3] = in vitro, 72° C., PfuTurbo DNA polymerase (FIG. 18C)

PfuTurbo DNA polymerase, sequence (P61875 whole entry): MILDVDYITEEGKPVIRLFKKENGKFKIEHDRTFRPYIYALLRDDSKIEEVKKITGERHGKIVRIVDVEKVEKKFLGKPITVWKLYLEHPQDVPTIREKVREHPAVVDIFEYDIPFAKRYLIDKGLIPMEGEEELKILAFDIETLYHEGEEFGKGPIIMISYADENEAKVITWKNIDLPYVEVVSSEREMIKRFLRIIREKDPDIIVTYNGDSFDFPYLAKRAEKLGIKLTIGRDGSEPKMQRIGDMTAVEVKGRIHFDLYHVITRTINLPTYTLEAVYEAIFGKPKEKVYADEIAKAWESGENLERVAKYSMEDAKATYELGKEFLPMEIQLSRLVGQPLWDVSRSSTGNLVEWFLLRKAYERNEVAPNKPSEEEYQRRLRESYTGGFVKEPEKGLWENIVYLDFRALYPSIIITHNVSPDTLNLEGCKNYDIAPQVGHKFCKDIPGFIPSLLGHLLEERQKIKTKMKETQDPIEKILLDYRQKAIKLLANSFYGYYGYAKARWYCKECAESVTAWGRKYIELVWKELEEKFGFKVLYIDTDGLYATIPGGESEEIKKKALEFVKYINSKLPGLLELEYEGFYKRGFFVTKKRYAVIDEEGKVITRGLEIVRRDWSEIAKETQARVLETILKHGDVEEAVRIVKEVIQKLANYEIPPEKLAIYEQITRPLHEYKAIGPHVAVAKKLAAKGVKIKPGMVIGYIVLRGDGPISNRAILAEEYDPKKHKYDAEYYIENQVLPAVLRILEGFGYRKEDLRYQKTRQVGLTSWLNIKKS

For `NC1=NC(=O)N([C@H]2C[C@H](O)[C@@H](CO)O2)CN1` [KP1212, 5-aza-5,6-dihydro-2′-deoxycytidine], the “pH dependence of mispairing frequency” value ([1]; in vitro polymerase extension reaction, pH 7.0 and 7.8, preliminary studies) was “did not vary significantly”, the “A placed opposite KP1212” value [1, 3] was 9.5 % of the time and the “G placed opposite KP1212” value [1, 3] was 90.5 % of the time. The “tautomerism by FTIR and 2D IR” value [2] was “multiple tautomeric forms; also recorded: different tautomeric forms”.
